Source: US20240197700A1, “Methods and Compositions for Treating Lysosomal Storage Disorders” (Sanford Health, priority 2021, published 2024)
Entries after “also recorded” stand apart in the source; their conditions may differ.

Assays:
NCL MEFs = test: Autofluorescent storage material (ASM) in Batten disease mouse embryonic fibroblasts; type: cell-based
Protocol: (§1) Specific experimental details are included in figure legends. In general, after collection and preparation, MEFs and PNCs were dosed with vehicle or AF38469 (40 nM, 400 nM. or 4 μM) on DIV3 and DIV5. On DIV7, cells were treated with the following dyes: Hoechst 33342 (1:1000 dilution), LysoTrackerT™ Red DND-99 (1:10,000 dilution), fixed, and imaged. Mice were given vehicle or AF38469 (78.125 μg/ml, 3.125 μg/ml, 0.3125 μg/ml or 0.03125 μg/ml equating approximately to 250 μg/mouse/day, 10 μg/mouse/day, 1 μg/mouse/day, and […], respectively, given a mouse's daily water intake of approximately 3.2 ml per day) in drinking water beginning at wean. Body weight was measured bi-weekly, and a force actimeter test was performed on Cln2^R207X mice at 10 weeks of age. Body weight was measured every month for Cln3^Δex7/8 mice. At 11 and 16 weeks of age, respectively, Cln2^R207X and Cln3^Δex7/8 mice along with age matched wild type control mice were CO2 euthanized and intracardially perfused with PBS. Brains were collected and placed on a 1 mm sagittal brain block. Brains were sliced at the midline and 3 mm right of the midline. One hemisphere was fixed in 4% PFA and sectioned at 50 microns on a vibratome. Immunohistochemistry was performed on free-floating sections. For mitochondrial ATP synthase subunit C (SubC), glial fibrillary acidic protein (GFAP), and cluster of differentiation 68 (CD68) immunolabeling, primary antibodies included anti-SubC (Abcam, ab181243; 1:1000), anti-GFAP (Dako, Z0334; 1:5000), anti-CD68 (AbD Serotec, MCA1957; 1:2000), and secondary antibodies included anti-rabbit biotinylated (Vector Labs, BA-1000 1:1000) and anti-rat (Vector Labs, BA-9400 1:1000). Coverslips were mounted on slides using antifade-mounting media and were stored in the dark before imaging. Sections were imaged and analyzed using an Aperio Digital Pathology Slide Scanner (AT2) and associated software. Images were extracted from S1BF of the somatosensory cortex and the VPM/VPL of the thalamus, with multiple images taken of multiple tissues from each animal.
• An increase in percent area or total area of positive autofluorescent storage material (ASM) signal in untreated NCL MEFs or PNCs relative to age-matched, wild type MEFs or PNCs is considered an increase in the accumulation of autofluorescent storage material, reflecting disease-related lysosomal dysfunction. • A decrease in percent area or total area of positive autofluorescent storage material signal in AF38469 treated MEFs and PNCs relative to age-matched, vehicle treated MEFs and PNCs is considered a reduction in the accumulation of autofluorescent storage material and thus a decrease in disease-related lysosomal dysfunction. • LysoTracker™ is an acidophilic dye that labels lysosomes and accumulation increases with an increase in lysosome size or number. Cell and mouse models of lysosomal storage disorders often have increased accumulation of lysosomes and therefore have a stronger LysoTracker™ signal. […]

Cln3^Δex7/8 mice = test: Astroglial activation (GFAP) in brain of Cln3^Δex7/8 mice; type: in vivo, mouse
Protocol: FIG. 22(A-B). Short-term chronic treatment with semaglutide impacts glial activation in Cln3^Δex7/8 mice. Beginning at wean, wild type and Cln3^Δex7/8 mice were treated with vehicle or semaglutide 2.571 μg/mouse, 25.71 μg/mouse) through subcutaneous injections three times a week until sacrifice at 16 weeks. Upon sacrifice, a hemisphere of the brain was sectioned at 50 microns on a vibratome; DAB staining immunohistochemistry was then performed using anti-GFAP (Dako, Z0334; 1:5000), anti-CD68 (AbD Serotec, MCA1957; 1:2000), anti-rabbit biotinylated (Vector Labs, BA-1000 1:1000), and anti-rat (Vector Labs, BA-9400 1:1000). Sections were imaged and analyzed using an Aperio Digital Pathology Slide Scanner (AT2) and associated software. Images were extracted from S1BF of the somatosensory cortex, the CA3 of the hippocampus, and the VPM/VPL of the thalamus, key brain regions for Batten disease pathology. Percent area of immunoreactivity were quantified using a threshold analysis in ImageJ™. Statistical analyses were performed using GraphPad Prism™ (v8.4.3; San Diego, CA). […] Increasing concentrations of semaglutide and corresponding genotypes are shown along the x-axis. Nested one-way ANOVA. Mean±S.E.M. Sidak's multiple comparisons test. Compared to the wild type vehicle treated group #p<0.05, ##p<0.01, ###p<0.001, ####p<0.0001. Compared to mutant vehicle treated group *p<0.05, **p<0.01, ***p<0.001, ****p<0.0001.
as §1
Short-term chronic treatment with AF38469 impacts glial activation in Cln3^Δex7/8 mice. Beginning at wean, wild type and Cln3^Δex7/8 mice were treated with vehicle (0.2408% DMSO) or AF38469 (0.03125 μg/ml, 0.3125 μg/ml, 3.125 μg/ml, 78.125 μg/ml) continuously through the drinking water continuing until sacrifice at 16 weeks. […]

Cc1cccc(NC(=O)c2ccc(C(F)(F)F)cc2C(=O)O)n1 [AF38469, 2-((6-methylpyridin-2-yl)carbamoyl)-5-(trifluoromethyl)benzoic acid]
accumulation of autofluorescent storage material (ASM) (NCL MEFs; 40 nM, 400 nM, 4 μM, Cln1^R151X, Cln2^R207X, Cln3^Δex7/8, Cln6^nclf, Cln8^mnd MEFs, DIV7): significantly reduced | accumulation of autofluorescent storage material (ASM) (NCL MEFs; Cln11^−/− MEFs, DIV7): did not have an impact | astroglial activation (GFAP) (Cln3^Δex7/8 mice; 0.03125 μg/ml, 0.3125 μg/ml, VPM/VPL of the thalamus): significantly and potently decreased | astroglial activation (GFAP) (Cln3^Δex7/8 mice; 0.03125 μg/ml, somatosensory cortex): significantly decreased | astroglial activation (GFAP) (Cln3^Δex7/8 mice; AF38469 higher doses 3.125 μg/ml, 78.125 μg/ml, VPM/VPL of the thalamus and somatosensory cortex): increased or had no impact; also recorded: had no impact | GFAP reactivity (Cln3^Δex7/8 mice; lower doses, somatosensory cortex and the thalamus, summary statement): significantly decreased

CC[C@H](C)[C@H](N)C(=O)NCCN1CCOCC1 [LM11A-31, N-[2-(morpholin-4-yl)ethyl]-L-isoleucinamide]
accumulation of autofluorescent storage material (ASM) (NCL MEFs; LM11A-31 100 nM, 1 μM, 10 μM, Cln1^R151X, Cln6^nclf, Cln8^mnd MEFs, DIV7): did not reduce | accumulation of autofluorescent storage material (ASM) (NCL MEFs; LM11A-31 (mid to high doses), Cln2^R207X and Cln3^Δex4/8 (so in the source) MEFs): trended towards reductions; also recorded: decreasing trend | astroglial activation (GFAP) (Cln3^Δex7/8 mice; LM11A-31 0.6 mg/mL, VPM/VPL of the thalamus and somatosensory cortex): decreasing trend; also recorded: trends towards decreased levels; also recorded: had no significant decrease

semaglutide
accumulation of autofluorescent storage material (ASM) (NCL MEFs; semaglutide 10 nM, 100 nM, 1 μM, Cln1^R151X, Cln2^R207X, Cln3^Δex7/8, Cln6^nclf, Cln8^mnd MEFs): had no impact | astrocytosis (GFAP) (Cln3^Δex7/8 mice; semaglutide 2.571 μg/mouse, 25.71 μg/mouse s.c., S1BF, CA3, VPM/VPL): had no significant effect
